Measurements as given in ChEMBL document CHEMBL1759890, “3,5-Disubstituted-indole-7-carboxamides: the discovery of a novel series of potent, selective inhibitors of IKK-β” (Bioorg Med Chem Lett, 2011).

Columns and labels:
[1] = target: T1, Serine/threonine-protein kinase TBK1 (Homo sapiens, UniProt Q9UHD2); assay: Inhibition of TBK-1
T1 sequence (Q9UHD2 whole entry): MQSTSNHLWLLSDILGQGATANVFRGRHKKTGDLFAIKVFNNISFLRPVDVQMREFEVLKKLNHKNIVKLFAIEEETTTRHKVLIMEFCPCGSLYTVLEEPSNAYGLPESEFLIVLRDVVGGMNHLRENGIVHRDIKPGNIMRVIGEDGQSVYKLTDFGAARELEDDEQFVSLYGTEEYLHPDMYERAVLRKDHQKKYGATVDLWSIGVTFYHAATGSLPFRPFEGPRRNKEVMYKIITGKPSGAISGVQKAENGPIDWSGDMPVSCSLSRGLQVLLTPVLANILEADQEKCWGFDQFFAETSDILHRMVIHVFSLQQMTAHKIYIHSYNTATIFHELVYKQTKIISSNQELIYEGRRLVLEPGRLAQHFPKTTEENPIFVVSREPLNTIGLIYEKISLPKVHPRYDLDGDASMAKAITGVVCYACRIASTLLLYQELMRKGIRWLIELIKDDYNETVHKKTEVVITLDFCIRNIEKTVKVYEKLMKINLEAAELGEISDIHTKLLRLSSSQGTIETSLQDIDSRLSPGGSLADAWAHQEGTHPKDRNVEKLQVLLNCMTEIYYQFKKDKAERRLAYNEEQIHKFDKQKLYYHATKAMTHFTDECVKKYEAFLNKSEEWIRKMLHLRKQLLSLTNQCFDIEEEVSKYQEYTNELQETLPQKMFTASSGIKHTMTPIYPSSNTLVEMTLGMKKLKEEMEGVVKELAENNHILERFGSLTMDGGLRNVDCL

[2] = target: T2, Inhibitor of nuclear factor kappa-B kinase subunit beta (Homo sapiens, UniProt O14920); assay: Inhibition of IKK-beta in human A549 cells assessed as TNF-alpha-induced Nuclear factor-kappa-B nuclear translocation
T2 sequence (O14920 whole entry): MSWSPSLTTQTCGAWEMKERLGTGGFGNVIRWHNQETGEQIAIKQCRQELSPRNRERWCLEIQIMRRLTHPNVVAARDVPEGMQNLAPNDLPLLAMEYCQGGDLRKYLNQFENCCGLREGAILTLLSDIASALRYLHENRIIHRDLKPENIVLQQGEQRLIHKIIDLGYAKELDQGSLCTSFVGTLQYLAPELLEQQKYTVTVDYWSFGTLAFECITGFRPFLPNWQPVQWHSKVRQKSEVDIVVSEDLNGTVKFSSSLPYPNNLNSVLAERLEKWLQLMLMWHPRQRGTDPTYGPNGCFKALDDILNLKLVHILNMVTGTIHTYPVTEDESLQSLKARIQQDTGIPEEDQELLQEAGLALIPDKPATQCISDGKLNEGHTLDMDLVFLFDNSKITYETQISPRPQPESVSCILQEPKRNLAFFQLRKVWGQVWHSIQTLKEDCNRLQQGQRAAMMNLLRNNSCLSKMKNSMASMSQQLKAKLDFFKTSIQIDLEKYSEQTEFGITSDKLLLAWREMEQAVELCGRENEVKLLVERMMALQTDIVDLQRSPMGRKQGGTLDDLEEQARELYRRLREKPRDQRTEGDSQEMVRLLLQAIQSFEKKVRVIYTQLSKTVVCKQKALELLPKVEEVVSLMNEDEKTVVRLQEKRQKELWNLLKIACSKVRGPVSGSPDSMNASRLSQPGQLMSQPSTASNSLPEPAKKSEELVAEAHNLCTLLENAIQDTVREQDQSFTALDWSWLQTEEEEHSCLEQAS

[3] = target: T3, Receptor-type tyrosine-protein kinase FLT3 (Homo sapiens, UniProt P36888); assay: Binding affinity to FLT3 assessed as dissociation constant
T3 sequence (P36888 whole entry): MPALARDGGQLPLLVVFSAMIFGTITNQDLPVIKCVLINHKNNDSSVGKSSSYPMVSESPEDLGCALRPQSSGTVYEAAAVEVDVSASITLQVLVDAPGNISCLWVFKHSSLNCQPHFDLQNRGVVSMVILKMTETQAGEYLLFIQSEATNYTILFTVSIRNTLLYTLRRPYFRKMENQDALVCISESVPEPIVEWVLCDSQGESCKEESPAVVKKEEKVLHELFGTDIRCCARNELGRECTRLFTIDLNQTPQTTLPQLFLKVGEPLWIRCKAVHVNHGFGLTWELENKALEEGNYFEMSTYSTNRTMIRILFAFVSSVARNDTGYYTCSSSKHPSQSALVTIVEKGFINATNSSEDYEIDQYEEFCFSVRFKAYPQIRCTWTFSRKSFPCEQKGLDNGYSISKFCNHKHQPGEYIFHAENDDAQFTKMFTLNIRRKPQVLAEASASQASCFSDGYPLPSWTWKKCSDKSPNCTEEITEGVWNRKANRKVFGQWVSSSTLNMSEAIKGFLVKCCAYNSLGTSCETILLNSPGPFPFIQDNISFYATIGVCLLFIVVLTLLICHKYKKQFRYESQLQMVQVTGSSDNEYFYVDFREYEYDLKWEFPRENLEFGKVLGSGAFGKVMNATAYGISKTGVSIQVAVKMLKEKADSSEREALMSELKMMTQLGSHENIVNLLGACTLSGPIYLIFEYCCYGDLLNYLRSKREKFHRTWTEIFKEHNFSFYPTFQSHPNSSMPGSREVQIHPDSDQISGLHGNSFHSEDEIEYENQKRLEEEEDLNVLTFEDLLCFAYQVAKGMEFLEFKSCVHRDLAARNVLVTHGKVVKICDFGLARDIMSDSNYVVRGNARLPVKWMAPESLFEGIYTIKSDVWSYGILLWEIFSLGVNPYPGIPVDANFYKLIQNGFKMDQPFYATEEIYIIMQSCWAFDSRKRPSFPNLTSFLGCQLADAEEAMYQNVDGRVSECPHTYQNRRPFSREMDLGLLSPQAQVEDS

IC50 [1]: > 3160 nM
IC50 [2]: 158 nM
Kd [3]: 1260 nM
SMILES: CCCS(=O)(=O)N1CCC(c2c[nH]c3c(C(N)=O)cc(-c4ccccc4)cc23)CC1
